The nature of data set [1]: Distribution coefficient (logD), n-octanol-PBS. The format is physicochemical. The conditions noted are these: n-octanol-PBS (pH = 7.4) system. The method, then:
The logD values of the newly synthesized complexes were determined according to a procedure described in our previous publications. page 64: Ir-7b +1.17 Rh-7b +1.41 Ru-7c +1.31 Os-7c +1.59 Ir-7c +1.40 Rh-7c +1.13 Ru-7d +1.26 Os-7d +1.42 Ir-7d +1.30 Rh-7d +1.04 Ru-7e +2.22 Os-7e +2.21 Ir-7e +1.39 Rh-7e +1.66 *logD was determined in an n-octanol-PBS (pH = 7.4) system 64 (14 pictures or pasted objects on this page, not shown here)

For data set [2], the system named is A2780 cells. Nature of the data set: MTT reduction assay, early toxicity, 4 h treatment. The settings on record: inhibition at maximum concentration (100 μM) where no plateau, ND = not detectable; for inhibition at 100 µM: Homo sapiens, read-out: A2780 MTT Max Inhibition. In kind it is cell-based. How it is done:
(§1) The complexes described above are intended to replace registered platinum complexes. Platinum complexes constitute the core of the chemotherapy regimen used in ovarian cancer; therefore, we used a cellular model of ovarian cancer, A2780, and primary human dermal fibroblasts as models of non-transformed cells (controls). For the characterization of the complexes, we used an MTT assay after 4 h of treatment for the detection of early toxicity and an SRB assay 48 h after treatment for the detection of cytostasis.
An MTT reduction assay was measures the activity of mitochondrial complex I and can be used to detect toxicity. The assay was performed in a manner similar to that described in [84]. Briefly, cells were plated in 96-well plates the day before the assay. Cells were treated with the compounds for 4 h; then, MTT was added to a 0.5 mg/mL final concentration, and cells were incubated at 37 °C in a cell incubator for 40–60 min as a function of the cell line being assessed. Culture medium was removed, the reduced MTT dye was dissolved in dimethyl-sulfoxide, and plates were measured in a plate photometer (Thermo Scientific Multiscan GO spectrophotometer, Waltham, MA, USA) at 540 nm. On each plate, wells were designed to contain vehicle-treated cells. In calculations, the readings for these wells were considered to 1, and all readings were expressed relative to these values.
(§2) Statistical analysis was performed using version 8.0.1 of GraphPad Prism. Values were tested for normal distribution using the Shapiro–Wilk normality test. Nonlinear regression was performed using the built-in “[Inhibitor] vs. response—Variable slope (four parameters), least square fit” utility of GraphPad, which yielded IC50 and Hill slope values if the sigmoid curves reached a plateau of inhibition and there was no decrease between two subsequent data points or when inhibition was over 90%. In other cases, the percentage of inhibition was taken for the maximum concentration (100 μM).
A general note: Formazan colour is commonly taken as a measure of viable cells.

The test system of data set [3] is A2780 cells. The data set can be described thus: SRB binding assay, cytostasis, 48 h treatment. The format is cell-based. The settings on record: up to 100 μM, ND = not detectable. How it is done: as §1
An SRB assay measures protein content of cells in correlation with the cell number in an assay well and can therefore be used to assess cell proliferation or long-term cytostasis. Cells were seeded in 96-well plates the day before the assay. Cells were treated with the compounds for 48 h. Then medium was removed, and cells were fixed with 10% trichloroacetic acid. Fixed cells were washed in distilled water 3 times, followed by staining with SRB (0.4 m/V% dissolved in 1% acetic acid) for 10 min. Stained cells were washed in 1% acetic acid 5 times; acetic acid was removed, and cells were left to dry. Protein-bound SRB was released by adding 100 μL 10 mM Tris base. Plates were measured in a plate photometer (Thermo Scientific Multiscan GO spectrophotometer, Waltham, MA, USA) at 540 nm. On each plate, wells were designed to contain vehicle-treated cells. In calculations, the readings for these wells were considered to be 1, and all readings were expressed relative to these values.
as §2
In general terms: The SRB assay estimates cell density from bound dye.

For data set [4], the system named is methicillin-resistant Staphylococcus aureus (MRSA) clinical isolates. Nature of the data set: Broth microdilution MIC, clinical MRSA isolates. The conditions noted are these: Staphylococcus aureus, 24 h, 0.08–40 μM. In kind it is cell-based. The method, then: (§3) We used a set of clinical isolates of S. aureus and E. faecium that were collected at the Medical Center of the University of Debrecen (Hungary) between 1 January 2018. and 31 December 2020. The clinical isolates were identified using a Microflex MALDI-TOF mass spectrometer (Bruker, Billerica, MA, USA). The antibiotic susceptibility of the isolates was tested following the European Committee on Antimicrobial Susceptibility Testing (EUCAST) guidelines, which were valid at the time of collection.
(§4) Microdilution experiments were performed according to the standards of EUCAST [85]. The bacterial isolates to be tested were grown on Mueller–Hinton agar plates. The inoculum density of bacteria was set at 5.0 × 10^5 CFU/mL in microtiter plates in a final volume of 200 μL Mueller–Hinton broth. The tested concentration range was 0.08–40 μM (10 concentrations, twofold serial dilutions), and a drug-free growth control and an inoculum-free negative control were included. The inoculated plates were incubated for 24 h at 37 °C, then visually assessed. Minimum inhibitory concentration (MIC) was defined as the lowest concentration with a 50%≤ inhibitory effect compared to the growth control. All experiments were performed at least twice in duplicate.
On the technique in general: Dilution methods test growth across graded concentrations, often in twofold steps.

Data set [5] concerns Enterococcus faecalis (ATCC29212). The data set can be described thus: Broth microdilution MIC, reference strain. In kind it is cell-based. The conditions noted are these: Enterococcus faecalis, 24 h, tested range 0.08–40 μM, read-out: MIC E. faecalis ATCC 29,212. The method, then:
(§5) The reference strains of Staphylococcus aureus (ATCC29213) and Enterococcus faecalis (ATCC29212) were purchased from the ATCC (Manassas, VA, USA).
as §4

The test system of data set [6] is Staphylococcus aureus (ATCC29213). Nature of the data set: Broth microdilution MIC, reference strain. The conditions noted are these: Staphylococcus aureus, ATCC29213, 24 h, 0.08–40 μM, read-out: MIC S. aureus ATCC 29213. In kind it is cell-based. How it is done: as §5, §4
For data set [7], the system named is vancomycin-resistant Enterococcus (VRE) clinical isolates. The data set can be described thus: Broth microdilution MIC, clinical VRE isolates. The format is cell-based, E. faecium. The conditions noted are these: Enterococcus, 24 h, 0.08–40 μM. How it is done: as §3, §4
Where [8] appears, read: clinical isolate 20,426 MRSA, read-out: MIC 20,426 MRSA.
[9] abbreviates: clinical isolate 24,035 MRSA, read-out: MIC 24,035 MRSA.
Where [10] appears, read: clinical isolate 24,268 MRSA, read-out: MIC 24,268 MRSA.
The mark [11] stands for this setting: clinical isolate 24,272 MRSA, read-out: MIC 24,272 MRSA.
Where [12] appears, read: clinical isolate 24,328 MRSA, read-out: MIC 24,328 MRSA.
Where [13] appears, read: clinical isolate 24,408 MRSA, read-out: MIC 24,408 MRSA.
Setting [14] is: clinical isolate 25,051 VRE, read-out: MIC 25,051 VRE.
The mark [15] stands for this setting: clinical isolate 25,498 VRE, read-out: MIC 25,498 VRE.
The mark [16] stands for this setting: clinical isolate 27,085 VRE, read-out: MIC 27,085 VRE.

Like-named read-outs stand apart in the source and are kept apart here.

In turn, `Cc1ccc(C(C)C)cc1.F[P-](F)(F)(F)(F)F.N[C@@H]1[C@@H](OC(=O)c2ccccc2)[C@H](OC(=O)c2ccccc2)[C@@H](COC(=O)c2ccccc2)O[C@H]1c1cnccn1.[Cl][Ru+]` [Ru-7d] yielded a pH-dependent lipophilicity (logD) in data set [1] of 1.26. The “A2780 MTT Max Inhibition” value in data set [2] stood at 64.04%. The “A2780 SRB Max Inhibition” value in data set [3] was 80.44%.

Regarding `N[C@@H]1[C@@H](OC(=O)c2ccccc2)[C@H](OC(=O)c2ccccc2)[C@@H](COC(=O)c2ccccc2)O[C@H]1c1ncccn1` [Complex 7c, 2-(2′-Amino-2′-deoxy-3′,4′,6′-tri-O-benzoyl-β-D-glucopyranosyl)pyrimidine], in data set [2], the inhibition at 100 µM was 26.3%. Also, in data set [3], the “A2780 SRB Max Inhibition” value turned out to be 79.53%.

For the compound `Cc1ccc(C(C)C)cc1.F[P-](F)(F)(F)(F)F.N[C@@H]1[C@@H](OC(=O)c2ccccc2)[C@H](OC(=O)c2ccccc2)[C@@H](COC(=O)c2ccccc2)O[C@H]1c1cnccn1.[Cl][Os+]` [Os-7d], the logD in data set [1] stood at 1.42. Also, the “A2780 MTT Max Inhibition” value in data set [2] is reported as 46.72%. Besides, in data set [3], the “A2780 SRB Max Inhibition” value came to 80.44%.

On to `N[C@@H]1[C@@H](OCc2ccccc2)[C@H](OCc2ccccc2)[C@@H](COCc2ccccc2)O[C@H]1c1cnccn1` [Complex 3d, 2-(2′-Amino-2′-deoxy-3′,4′,6′-tri-O-benzyl-β-D-glucopyranosyl)pyrazine], for which the MIC in data set [4] (setting [8]), in data set [4] (setting [9]), in data set [4] (setting [10]), in data set [4] (setting [11]), in data set [4] (setting [12]) and in data set [4] (setting [13]) was over 40 µM throughout. For the same compound, the MIC in data set [5], in data set [6], in data set [7] (setting [14]), in data set [7] (setting [15]) and in data set [7] (setting [16]) was over 40 µM each time. In addition, the “A2780 MTT Max Inhibition” value in data set [2] is given as “no activity”.

As to `N[C@@H]1[C@@H](O)[C@H](O)[C@@H](CO)O[C@H]1c1ccccn1` [Complex 5a, 2-(2′-Amino-2′-deoxy-β-D-glucopyranosyl)pyridine], the “A2780 MTT Max Inhibition” value in data set [2] is reported as “did not exhibit any biological activity”. Moreover, in data set [3], the “A2780 SRB Max Inhibition” value is on record as “did not exhibit any biological activity”.

The compound `Cc1ccc(C(C)C)cc1.F[P-](F)(F)(F)(F)F.N[C@@H]1[C@@H](O)[C@H](O)[C@@H](CO)O[C@H]1c1ccccn1.[Cl][Ru+]` [Ru-5a] came in with a pH-dependent lipophilicity (logD) in data set [1] of −1.91. The “A2780 MTT Max Inhibition” value in data set [2] is reported as “did not exhibit any biological activity”. In data set [3], the “A2780 SRB Max Inhibition” value is given as “did not exhibit any biological activity”.

For `N[C@@H]1[C@@H](OC(=O)c2ccccc2)[C@H](OC(=O)c2ccccc2)[C@@H](COC(=O)c2ccccc2)O[C@H]1c1cnccn1` [Complex 7d, 2-(2′-Amino-2′-deoxy-3′,4′,6′-tri-O-benzoyl-β-D-glucopyranosyl)pyrazine], the inhibition at 100 µM in data set [2] stood at 18.1%. Moreover, the “A2780 SRB Max Inhibition” value in data set [3] stood at 73.37%.

The compound `Cc1c(C)c(C)[c-](C)c1C.F[P-](F)(F)(F)(F)F.N[C@@H]1[C@@H](OC(=O)c2ccccc2)[C@H](OC(=O)c2ccccc2)[C@@H](COC(=O)c2ccccc2)O[C@H]1c1cnccn1.[Cl][Rh+2]` [Rh-7d] returned a logD in data set [1] of 1.04. The “A2780 MTT Max Inhibition” value in data set [2] amounted to 18.08%. Besides, the “A2780 SRB Max Inhibition” value in data set [3] worked out at 64.76%.

In the case of `Cc1c(C)c(C)[c-](C)c1C.F[P-](F)(F)(F)(F)F.N[C@@H]1[C@@H](OC(=O)c2ccccc2)[C@H](OC(=O)c2ccccc2)[C@@H](COC(=O)c2ccccc2)O[C@H]1c1cnccn1.[Cl][Ir+2]` [Ir-7d], the logD in data set [1] is listed as 1.30. In addition, the “A2780 MTT Max Inhibition” value in data set [2] turned out to be 38.71%. For the same compound, the “A2780 SRB Max Inhibition” value in data set [3] stood at 80.44%.

On to `N[C@@H]1[C@@H](OC(=O)c2ccccc2)[C@H](OC(=O)c2ccccc2)[C@@H](COC(=O)c2ccccc2)O[C@H]1c1ccc2ccccc2n1` [Complex 7e, 2-(2′-Amino-2′-deoxy-3′,4′,6′-tri-O-benzoyl-β-D-glucopyranosyl)quinoline], for which the MIC in data set [4] (setting [8]), in data set [4] (setting [9]), in data set [4] (setting [10]), in data set [4] (setting [11]), in data set [4] (setting [12]) and in data set [4] (setting [13]) was over 40 µM throughout. Besides, the MIC in data set [5], in data set [6], in data set [7] (setting [14]), in data set [7] (setting [15]) and in data set [7] (setting [16]) was over 40 µM each time. Moreover, the inhibition at 100 µM in data set [2] was found to be 13.6%. Further, the “A2780 SRB Max Inhibition” value in data set [3] came to 45.20%.

For orientation: logD means the decadic logarithm of the distribution of all forms, ionised or not, between an organic phase and buffer at a given pH. Low values mean lower lipophilicity, high ones higher lipophilicity. Usually inhibition stands for the change of the read-out against control, counted positive when it falls. As usually defined, the MIC is the least concentration at which growth counts as inhibited.

For the origin of these results see publication PMC10096180, “Half-Sandwich Type Platinum-Group Metal Complexes of C-Glucosaminyl Azines: Synthesis and Antineoplastic and Antimicrobial Activities” (Molecules, 2023).
